Measurements reported in paper PMC12980303, “Development of a novel risk score reflecting the relative harm potential of synthetic cannabinoids based on prevalence estimates, well‐documented intoxication cases and basic pharmacological data” (Addiction (Abingdon, England), 2025).
Several values for one entry are separate records, joined by “and”; a condition that tells them apart may be missing. Identical values can stand only once. Like-named read-outs stand apart in the source and are kept apart here. Marks after values point to notes of the source that are not given here.

Experiments:
hCB1 receptor [1] = biological target: T1, hCB1 receptor (Homo sapiens, UniProt P21554); assay: competitive [3H]CP‐55940 radioligand binding assay (hCB1 receptor affinity); conditions: [3H]CP‐55940 competition, hCB1 membrane preparations (HEK293‐EBNA), Cheng–Prusoff, 95% CI in brackets
Description: (§1) Receptor assays were performed on three different days and each concentration was tested in duplicate.
From the IC50, the respective Ki values were calculated using the Cheng–Prusoff equation [39].

hCB1 receptor [2] = biological target: T1, hCB1 receptor; assay: functional [35S]GTPγS hCB1 activation assay; assay type: biochemical; conditions: for Emax: read-out: [35S]‐GTPγS assay Emax [%] (95% CI)
Description: as §1

hCB1 receptor [3] = biological target: T1, hCB1 receptor
[4] = occurrence of SCRAs in intoxication samples of the prospective study; set-up: species or system human; conditions: 2013 to 2021; for No. of intoxications: 139 intoxication samples of the prospective study; for Percentage in %: proportion of 139 intoxications in which the substance was detected
Excerpt: For this study, the 10 SCRAs (AB‐[…], ADB‐[…], AB‐FUBINACA, FUB‐AMB, Cumyl‐PEGACLONE, MDMB‐4en‐PINACA, MDMB‐CHMICA, 5F‐MDMB‐PICA, 5F‐ADB and 5F‐PB‐22) which were most frequently detected in intoxications in a prospective observational study during the time period of 2013 to 2021 were selected (see Table 1). Additionally, JWH‐210, a model compound representative of the early SCRAs, along with two substances prevalent in screenings during years 2019/2020 (5F‐Cumyl‐PEGACLONE and 4F‐MDMB‐BICA), were included in this study (see Tables S2–S7). […] JWH‐018 was also included as a reference compound because of its historical use in this capacity. Including both reference compounds facilitates direct comparison with previously published data, thereby enhancing the relevance and interpretability of the results obtained in the present study. Information on the origin of the test and reference compounds and all chemicals used in this study can be found in Table S1.
The data on intoxication cases used for the development of this risk score were obtained from a prospective study. This study included patients who were treated in an emergency department room following the consumption of an NPS. Clinical symptoms and follow‐up information were documented using a structured questionnaire completed by the attending physicians. The methodology has been previously published. Residual serum (obtained from venous blood) and urine samples, accompanied by the completed questionnaires, were sent to the Poisons Information Center Freiburg for further analysis. The toxicological analyses of serum and urine samples were conducted at the Institute of Forensic Medicine Freiburg. No data was available on previous consumption patterns or potential development of tolerance after continued misuse. The study was conducted in accordance with the Declaration of Helsinki and approved by the regional ethics committee of the University of Freiburg (no. 235/13_130683). The intoxication cases included in this study are those in which SCRA use was confirmed by liquid chromatography tandem mass spectrometry (LC–MS/MS).

[5] = risk score from prevalence in routine forensic samples and intoxication cases (G1, PSS, TSS); set-up: species or system human; conditions: for G total (risk score): G1+G2+G3, higher value = greater toxicological risk; for G2: mean Poison Severity Score (PSS) of all intoxications with the SCRA; for G3: mean Toxicological Significance Score (TSS) of all intoxications with the SCRA; for G1: proportion in intoxication cases relative to prevalence in routine serum/blood and urine samples per quarter, 2013–2021, >1 over‐represented in intoxications
Excerpt: Therefore, higher values indicate substances with a higher risk. […] To take into account the severity of symptoms and the contribution of the specific NPS, two further summands were introduced. The first is based on the PSS, the second on the TSS. Again, higher values were associated with more severe symptoms and a stronger role of the NPS in causing the symptoms.
The risk score is composed of three components (parts G1, G2 and G3) and was designed as follows: (1) Gx=G1x+G2x+G3x,
Equation 2 takes into consideration several components: the number of intoxications with SCRA x in quarter k over the total number of intoxications of all investigated SCRAs in the same quarter; the number of serum/blood samples positive for SCRA x over the total number of serum/blood samples positive for all SCRAs plus the number of urine samples positive for SCRA x over the total number of urine samples positive for all SCRAs (this is divided by two to account for the two different sample types); and the number of quarters in which the SCRA x was prevalent. (2) G1x=∑k=1gak/bk/ck/dk+ek/fk/2/h+i
Consequently, equation 2 was mathematically rearranged. To further simplify the equation and reduce the formula signs, in equation 3 the following simplifications were taken: a/b=ai , c/d=as and e/f=au .
The sum of these quotients was divided by the number of all prevalent quarters (q p ). Prevalent quarters were defined as quarters in which on average the substance was detected in more than 5% of the positive serum and urine samples. If a poisoning occurred in a quarter in which the substance was not prevalent, the number of these quarters was added (q i ). This part of the score has similarities with an OR [42]. If the proportion of routine samples in a given quarter in which an intoxication with the respective substance occurred was zero (a s + a u = 0), a value of 0.01 was used for that quarter in the calculation of the quotient to avoid division by zero.
For part G2, the severity of the intoxication caused by the respective SCRA x was assessed on the basis of reported symptoms and follow‐up information using the PSS [20]. The PSS classifies the intoxication severity into five levels: (0) no, (1) mild, (2) moderate, (3) severe, and (4) fatal intoxication. […] For this purpose, the mean value of the PSS of all intoxications with the respective SCRA x was calculated ( G2x) .
For part G3, the involvement of the SCRA in the respective intoxications was assessed. This was evaluated on the basis of the TSS [21]. Elliott et al. developed the TSS to assess and classify the contribution of NPS in fatalities. In the present study, the TSS was determined to weigh the involvement of the investigated SCRA in the intoxication and the contribution of the SCRA to the observed symptoms. To determine the TSS value, factors such as the determined concentration of the SCRA, the presence of other recreational drugs or medicinal drugs, the general health of the patient and the consumption circumstances need to be considered. […] In cases with more than one drug detected, a TSS of 3 was only assigned where other compounds were present at concentrations below the range in which relevant effects are to be expected.
For the risk score, the mean value of the TSS of all intoxications with substance x was calculated ( G3x) . Analogous to the value of G2x , the value of G3x can theoretically be between 1 and 3. With a value of ‘1’, substance x was not mainly responsible for the symptoms in all of the intoxications (low level of significance), and with a value of ‘3’, it was the main cause in every poisoning in which it was detected.

[6] = read-out: βarr2 assay EC50 [nM] (95% CI); ref Janssens et al. [43]; cited from earlier work
[7] = relative to CP‐55940; originally normalised to JWH‐018, corrected with factor 0.3268; ref Janssens et al. [43]; cited from earlier work
[8] = read-out: βarr2 assay EC50 [nM] (95% CI); ref Noble et al. [30]; cited from earlier work
[9] = relative to CP‐55940; originally normalised to JWH‐018, corrected with factor 0.3268; ref Noble et al. [30]; cited from earlier work
[10] = relative to CP‐55940; ref Grafinger et al. [27]; cited from earlier work

T1 sequence (P21554 whole entry): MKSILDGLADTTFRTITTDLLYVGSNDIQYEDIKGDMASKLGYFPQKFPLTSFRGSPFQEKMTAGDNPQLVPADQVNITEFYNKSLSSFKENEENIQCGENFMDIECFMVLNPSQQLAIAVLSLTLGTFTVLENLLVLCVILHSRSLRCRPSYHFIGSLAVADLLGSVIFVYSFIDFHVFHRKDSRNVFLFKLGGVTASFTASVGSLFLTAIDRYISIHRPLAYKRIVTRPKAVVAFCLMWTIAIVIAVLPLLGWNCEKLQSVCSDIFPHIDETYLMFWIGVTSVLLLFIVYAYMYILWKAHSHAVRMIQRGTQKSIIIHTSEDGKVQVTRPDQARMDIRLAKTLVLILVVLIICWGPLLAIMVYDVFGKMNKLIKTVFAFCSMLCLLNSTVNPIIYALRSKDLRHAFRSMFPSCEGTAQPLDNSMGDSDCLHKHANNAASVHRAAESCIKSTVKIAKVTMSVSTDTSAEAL

Structure (SMILES) | Ki (hCB1 receptor [1]; Ki [nM] (95% CI)) | EC50 (hCB1 receptor [2]) | Emax (hCB1 receptor [2]) | No. of intoxications [4] | Percentage in % [4] | G total (risk score) [5] | G2 [5] | G3 [5] | G1 [5] | also measured
CC(C)(C)C(NC(=O)c1nn(CC2CCCCC2)c2ccccc12)C(N)=O (centres unmarked) | 0.0229 nM and 0.0231 nM | 0.467 nM | 124% | 18 | 13% | 7.1 | 2.1 | 2.7 | 2.3 | EC50 (hCB1 receptor [3]; read-out: βarr2 assay EC50 [nM] (95% CI); ref Wouters et al. [29]; cited from earlier work): 0.34 nM; βarr2 assay Emax [%] (95% CI) (hCB1 receptor [3]; relative to CP‐55940; originally normalised to JWH‐018, corrected with factor 0.3268; ref Wouters et al. [29]; cited from earlier work): 803.6 ^a (724.3–921.4) %
COC(=O)C(NC(=O)c1cn(CCCCF)c2ccccc12)C(C)(C)C (centres unmarked) [4F‐MDMB‐BICA] | 5.67 nM | 137 nM | 104% | 2 | 1.4% | 5.5 | 2.0 | 3.0 | 0.48 | EC50 (hCB1 receptor [3]; read-out: βarr2 assay EC50 [nM] (95% CI); ref Cannaert et al. [44]; cited from earlier work): 121 nM; βarr2 assay Emax [%] (95% CI) (hCB1 receptor [3]; relative to CP‐55940; originally normalised to JWH‐018, corrected with factor 0.3268; ref Cannaert et al. [44]; cited from earlier work): 774.2 (685.4–911.9) ^a %
COC(=O)C(NC(=O)c1nn(CCCCCF)c2ccccc12)C(C)(C)C (centres unmarked) [5F‐ADB] | 0.0993 nM | 1.95 nM | 103% | 33 | 24% | 6.9 | 1.9 | 2.6 | 2.5 | EC50 (hCB1 receptor [3]; ref Wouters et al. [29]; read-out: βarr2 assay EC50 [nM] (95% CI); cited from earlier work): 0.84 nM
CC(C)(c1ccccc1)n1ccc2c(c1=O)c1ccccc1n2CCCCCF [5F‐Cumyl‐PEGACLONE] | 0.0991 nM | 1.64 nM | 105% | 1 | 0.72% | 3.1 | 2.0 | 1.0 | 0.11 | EC50 (hCB1 receptor [3]; [6]): 0.58 nM; βarr2 assay Emax [%] (95% CI) (hCB1 receptor [3]; [7]): 1089 (988.4–1190) ^a %
COC(=O)C(NC(=O)c1cn(CCCCCF)c2ccccc12)C(C)(C)C (centres unmarked) [5F‐MDMB‐PICA] | 0.321 nM | 7.88 nM | 112% | 15 | 11% | 8.1 | 2.1 | 2.8 | 3.2 | EC50 (hCB1 receptor [3]; [8]): 3.26 nM; βarr2 assay Emax [%] (95% CI) (hCB1 receptor [3]; [9]): 1014 (951.7–1075) ^a %
CC(C)C(NC(=O)c1nn(Cc2ccc(F)cc2)c2ccccc12)C(N)=O (centres unmarked) [AB‐FUBINACA] | 0.385 nM | 17.5 nM | 114% |  |  |  |  |  |  | EC50 (hCB1 receptor [3]; [8]): 15.6 nM; βarr2 assay Emax [%] (95% CI) (hCB1 receptor [3]; [9]): 990.5 (922.9–1059) ^a %
CCCCCCC(C)(C)c1ccc([C@@H]2C[C@H](O)CC[C@H]2CCCO)c(O)c1 [CP‐55940, reference compound] |  |  | 96.9% |  |  |  |  |  |  | 
CCCCCn1c2ccccc2c2c(=O)n(C(C)(C)c3ccccc3)ccc21 [Cumyl‐PEGACLONE] | 0.242 nM | 12.4 nM | 117% | 5 | 3.6% | 4.5 | 2.0 | 2.2 | 0.32 | EC50 (hCB1 receptor [3]; [6]): 0.23 nM; βarr2 assay Emax [%] (95% CI) (hCB1 receptor [3]; [7]): 1053 (960.8–1148) ^a %
CCCCCn1cc(C(=O)c2cccc3ccccc23)c2ccccc21 [JWH‐018, reference compound] | 2.86 nM | 38.6 nM | 118% |  |  |  |  |  |  | βarr2 assay Emax [%] (95% CI) (hCB1 receptor [3]; [10]): 306 ^b (281–333) %
CCCCCn1cc(C(=O)c2ccc(CC)c3ccccc23)c2ccccc21 [JWH‐210] |  | 41.9 nM | 93.4% | 3 | 2.2% | 5.7 | 1.6 | 2.7 | 1.4 | Ki (hCB1 receptor [1]; read-out: Ki [nM] (95% CI)): 1.43 nM; EC50 (hCB1 receptor [3]; read-out: βarr2 assay EC50 [nM] (95% CI); ref Cannaert et al. [45]; cited from earlier work): 25.3 nM; βarr2 assay Emax [%] (95% CI) (hCB1 receptor [3]; relative to CP‐55940; originally normalised to JWH‐018, corrected with factor 0.3268; ref Cannaert et al. [45]; cited from earlier work): 714.2 (672.3–759.5) ^a ^, ^i %
C=CCCCn1nc(C(=O)NC(C(=O)OC)C(C)(C)C)c2ccccc21 (centres unmarked) [MDMB‐4en‐PINACA] |  | 13.4 nM | 114% | 6 | 4.3% | 6.8 | 2.2 | 3.0 | 1.6 | EC50 (hCB1 receptor [3]; ref Grafinger et al. [27]; read-out: βarr2 assay EC50 [nM] (95% CI); cited from earlier work): 1.88 nM; βarr2 assay Emax [%] (95% CI) (hCB1 receptor [3]; [10]): 679 (623–730) %
COC(=O)C(NC(=O)c1cn(CC2CCCCC2)c2ccccc12)C(C)(C)C (centres unmarked) [MDMB‐CHMICA] | 0.935 nM | 11.8 nM | 103% | 31 | 22% | 5.7 | 2.2 | 2.8 | 0.73 | EC50 (hCB1 receptor [3]; read-out: βarr2 assay EC50 [nM] (95% CI); ref Wouters et al. [31]; cited from earlier work): 2.2 nM; βarr2 assay Emax [%] (95% CI) (hCB1 receptor [3]; relative to CP‐55940; ref Wouters et al. [31]; cited from earlier work): 885.7 (818.5–958.0) %
